{"source": "ChEMBL document CHEMBL6115000", "about": "“Discovery of a first-in-class PROTAC degrader of histone lysine demethylase KDM4” (Eur J Med Chem, 2025)", "key": {"[1]": {"experiment": "Induction of cell cycle arrest in human KYSE-150 cells assessed as accumulation of cells at S pahse at 333.3 nM incubated for 24 hrs by flow cytometry (reference value: 13.15 %)", "format": "functional"}, "[2]": {"target": "T1, von Hippel-Lindau disease tumor suppressor/Lysine-specific demethylase 4A (Homo sapiens, UniProt O75164+P40337)", "experiment": "PROTAC activity at VHL/KDM4A in human KYSE-150 cells assessed as induction of KDM4A degradation at 50 nM incubated for 24 hrs in presence of Ac-VHL-Me by Western blot analysis", "format": "cell-based", "details": "KYSE-150 cell line"}, "[3]": {"experiment": "Induction of apoptosis in human KYSE-150 cells assessed as late apoptotic cells at 12.3 nM incubated for 72 hrs by Annexin V-PE/7-AAD staining based flow cytometry (reference value: 5.98 %)", "format": "functional"}, "[4]": {"experiment": "Induction of cell cycle arrest in human KYSE-150 cells assessed as accumulation of cells at S pahse at 1000 nM incubated for 24 hrs by flow cytometry (reference value: 13.15 %)", "format": "functional"}, "[5]": {"target": "T1, von Hippel-Lindau disease tumor suppressor/Lysine-specific demethylase 4A", "experiment": "PROTAC activity at VHL/KDM4A in human KYSE-150 cells assessed as induction of KDM4A degradation measured after 24 hrs by Western blot analysis", "format": "cell-based"}, "[6]": {"target": "T1, von Hippel-Lindau disease tumor suppressor/Lysine-specific demethylase 4A", "experiment": "PROTAC activity at VHL/KDM4A in human KYSE-150 cells assessed as increase in H3K36me3 level incubated for 24 hrs by Western blot analysis", "format": "cell-based", "details": "KYSE-150 cell line, dose <= 1000.0 nM"}, "[7]": {"experiment": "Induction of apoptosis in human KYSE-150 cells assessed as late apoptotic cells at 1000 nM incubated for 72 hrs by Annexin V-PE/7-AAD staining based flow cytometry (reference value: 5.98 %)", "format": "functional"}, "[8]": {"experiment": "Induction of cell cycle arrest in human KYSE-150 cells assessed as accumulation of cells at G0/G1 phase at 37 nM incubated for 24 hrs by flow cytometry (reference value: 65.08 %)", "format": "functional"}, "[9]": {"experiment": "Induction of cell cycle arrest in human KYSE-150 cells assessed as accumulation of cells at G0/G1 phase at 1000 nM incubated for 24 hrs by flow cytometry (reference value: 65.08 %)", "format": "functional"}, "[10]": {"experiment": "Induction of apoptosis in human KYSE-150 cells assessed as early apoptotic cells at 111.1 nM incubated for 72 hrs by Annexin V-PE/7-AAD staining based flow cytometry (reference value: 5.27 %)", "format": "functional"}, "[11]": {"target": "T1, von Hippel-Lindau disease tumor suppressor/Lysine-specific demethylase 4A", "experiment": "PROTAC activity at VHL/KDM4A in human KYSE-150 cells assessed as induction of KDM4A degradation at 50 nM incubated for 24 hrs in presence of MLN4924 by Western blot analysis", "format": "cell-based", "details": "KYSE-150 cell line"}, "[12]": {"target": "T1, von Hippel-Lindau disease tumor suppressor/Lysine-specific demethylase 4A", "experiment": "PROTAC activity at VHL/KDM4A in human KYSE-150 cells assessed as induction of KDM4A degradation upto 1000 nM measured after 24 hrs by Western blot analysis relative to control", "format": "cell-based", "details": "KYSE-150 cell line"}, "[13]": {"experiment": "Induction of apoptosis in human KYSE-150 cells assessed as viable cells at 333.3 nM incubated for 72 hrs by Annexin V-PE/7-AAD staining based flow cytometry (reference value: 84.47 %)", "format": "functional", "details": "read-out: Activity"}, "[14]": {"target": "T1, von Hippel-Lindau disease tumor suppressor/Lysine-specific demethylase 4A", "experiment": "PROTAC activity at VHL/KDM4A in human KYSE-150 cells assessed as induction of KDM4A degradation upto 1000 nM by Western blot analysis", "format": "cell-based", "details": "KYSE-150 cell line"}, "[15]": {"experiment": "Induction of cell cycle arrest in human KYSE-150 cells assessed as accumulation of cells at G0/G1 phase at 333.3 nM incubated for 24 hrs by flow cytometry (reference value: 65.08 %)", "format": "functional"}, "[16]": {"experiment": "Induction of apoptosis in human KYSE-150 cells assessed as necrotic cells at 1000 nM incubated for 72 hrs by Annexin V-PE/7-AAD staining based flow cytometry (reference value: 4.28 %)", "format": "functional"}, "[17]": {"experiment": "Induction of apoptosis in human KYSE-150 cells assessed as necrotic cells at 37 nM incubated for 72 hrs by Annexin V-PE/7-AAD staining based flow cytometry (reference value: 4.28 %)", "format": "functional"}, "[18]": {"experiment": "Induction of cell cycle arrest in human KYSE-150 cells assessed as accumulation of cells at G2/M phase at 1000 nM incubated for 24 hrs by flow cytometry (reference value: 21.64 %)", "format": "functional"}, "[19]": {"experiment": "Induction of apoptosis in human KYSE-150 cells assessed as necrotic cells at 12.3 nM incubated for 72 hrs by Annexin V-PE/7-AAD staining based flow cytometry (reference value: 4.28 %)", "format": "functional"}, "[20]": {"experiment": "Induction of apoptosis in human KYSE-150 cells assessed as late apoptotic cells at 37 nM incubated for 72 hrs by Annexin V-PE/7-AAD staining based flow cytometry (reference value: 5.98 %)", "format": "functional"}, "[21]": {"target": "T1, von Hippel-Lindau disease tumor suppressor/Lysine-specific demethylase 4A", "experiment": "PROTAC activity at VHL/KDM4A in human KYSE-150 cells assessed as fold increase in H3K36me3 level at 1000 nM incubated for 24 hrs by Western blot analysis relative to control", "format": "cell-based", "details": "KYSE-150 cell line"}, "[22]": {"target": "T1, von Hippel-Lindau disease tumor suppressor/Lysine-specific demethylase 4A", "experiment": "PROTAC activity at VHL/KDM4A in human KYSE-150 cells assessed as induction of KDM4A degradation at 500 nM measured for 8 to 36 hrs by Western blot analysis", "format": "cell-based", "details": "KYSE-150 cell line, time 8-36 hrs"}, "[23]": {"experiment": "Induction of cell cycle arrest in human KYSE-150 cells assessed as accumulation of cells at G0/G1 phase at 111.1 nM incubated for 24 hrs by flow cytometry (reference value: 65.08 %)", "format": "functional"}, "[24]": {"experiment": "Induction of apoptosis in human KYSE-150 cells assessed as necrotic cells at 333.3 nM incubated for 72 hrs by Annexin V-PE/7-AAD staining based flow cytometry (reference value: 4.28 %)", "format": "functional"}, "[25]": {"experiment": "Induction of apoptosis in human KYSE-150 cells assessed as viable cells at 111.1 nM incubated for 72 hrs by Annexin V-PE/7-AAD staining based flow cytometry (reference value: 84.47 %)", "format": "functional", "details": "read-out: Activity"}, "[26]": {"experiment": "Induction of cell cycle arrest in human KYSE-150 cells assessed as accumulation of cells at G2/M phase at 12.3 nM incubated for 24 hrs by flow cytometry (reference value: 21.64 %)", "format": "functional"}, "[27]": {"experiment": "Induction of apoptosis in human KYSE-150 cells assessed as necrotic cells at 111.1 nM incubated for 72 hrs by Annexin V-PE/7-AAD staining based flow cytometry (reference value: 4.28 %)", "format": "functional"}, "[28]": {"target": "T1, von Hippel-Lindau disease tumor suppressor/Lysine-specific demethylase 4A", "experiment": "PROTAC activity at VHL/KDM4A in human KYSE-150 cells assessed as increase in KDM4A ubiquitination at 50 nM incubated for 24 hrs by Western blot analysis", "format": "cell-based", "details": "KYSE-150 cell line"}, "[29]": {"experiment": "Induction of apoptosis in human KYSE-150 cells assessed as early apoptotic cells at 37 nM incubated for 72 hrs by Annexin V-PE/7-AAD staining based flow cytometry (reference value: 5.27 %)", "format": "functional"}, "[30]": {"experiment": "Induction of apoptosis in human KYSE-150 cells assessed as viable cells at 1000 nM incubated for 72 hrs by Annexin V-PE/7-AAD staining based flow cytometry (reference value: 84.47 %)", "format": "functional", "details": "read-out: Activity"}, "[31]": {"experiment": "Induction of apoptosis in human KYSE-150 cells assessed as late apoptotic cells at 111.1 nM incubated for 72 hrs by Annexin V-PE/7-AAD staining based flow cytometry (reference value: 5.98 %)", "format": "functional"}}, "note": "Activity calls are given as the source filed them. No cut-off for these calls is given here.", "data": [{"smiles": "Cc1ncsc1-c1ccc([C@H](C)NC(=O)[C@@H]2C[C@@H](O)CN2C(=O)[C@@H](NC(=O)CCCCCCCCCOc2ccc(N(C)c3ccc4c(c3)OCC[C@H]4CNc3cnccc3C(=O)O)cc2)C(C)(C)C)cc1", "values": [{"measurement": "Activity", "setting": "[1]", "value": 14.06, "unit": "%"}, {"measurement": "Activity", "setting": "[2]", "value": "inactive"}, {"measurement": "Activity", "setting": "[3]", "value": 18.97, "unit": "%"}, {"measurement": "Activity", "setting": "[4]", "value": 13.1, "unit": "%"}, {"measurement": "Activity", "setting": "[5]; KYSE-150 cell line", "value": "Dose-dependent-effect"}, {"measurement": "DC50", "setting": "[5]; kyse-150 cell line", "value": 37.5, "unit": "nM"}, {"measurement": "Activity", "setting": "[6]", "value": "Active"}, {"measurement": "Activity", "setting": "[7]", "value": 47.86, "unit": "%"}, {"measurement": "Activity", "setting": "[8]", "value": 71.68, "unit": "%"}, {"measurement": "Activity", "setting": "[9]", "value": 74.74, "unit": "%"}, {"measurement": "Activity", "setting": "[10]", "value": 22.13, "unit": "%"}, {"measurement": "Activity", "setting": "[11]", "value": "inactive"}, {"measurement": "Emax", "setting": "[12]", "value": 83.3, "unit": "%"}, {"measurement": "viability at 0.3333 µM", "setting": "[13]", "value": 19.5, "unit": "%"}, {"measurement": "Activity", "setting": "[14]", "value": "Time-dependent-effect"}, {"measurement": "Activity", "setting": "[15]", "value": 72.82, "unit": "%"}, {"measurement": "Activity", "setting": "[16]", "value": 5.01, "unit": "%"}, {"measurement": "Activity", "setting": "[17]", "value": 7.7, "unit": "%"}, {"measurement": "Activity", "setting": "[18]", "value": 12.05, "unit": "%"}, {"measurement": "Activity", "setting": "[19]", "value": 6.02, "unit": "%"}, {"measurement": "Activity", "setting": "[20]", "value": 43.51, "unit": "%"}, {"measurement": "FC", "setting": "[21]", "value": 2}, {"measurement": "Activity", "setting": "[22]", "value": "Active"}, {"measurement": "Activity", "setting": "[23]", "value": 73.05, "unit": "%"}, {"measurement": "Activity", "setting": "[24]", "value": 4.83, "unit": "%"}, {"measurement": "viability at 0.1111 µM", "setting": "[25]", "value": 18.2, "unit": "%"}, {"measurement": "Activity", "setting": "[26]", "value": 16.31, "unit": "%"}, {"measurement": "Activity", "setting": "[27]", "value": 5.52, "unit": "%"}, {"measurement": "Activity", "setting": "[28]", "value": "Active"}, {"measurement": "Activity", "setting": "[29]", "value": 18.22, "unit": "%"}, {"measurement": "viability at 1 µM", "setting": "[30]", "value": 17.9, "unit": "%"}, {"measurement": "Activity", "setting": "[31]", "value": 54.12, "unit": "%"}]}]}
